According to patent publication US7485759B2, “Minimization of ligand degradation products, or reversion of same to useful phosphine ligands” (Dow Technology Investments LLC, priority 2003, dated 2009):

Assays:
[1] = Batch hydroformylation of soy oil methyl esters; average rate of phosphonium ligand degradation product formation by 31P NMR (Comparative Experiment 5, Example 5); format: physicochemical; settings: 30 psig, reaction time 4 days
Method: The hydroformylation of soy oil methyl esters was conducted at 100° C. for comparative purposes to illustrate the effect of temperature on the formation of ligand degradation products. Under a nitrogen atmosphere, a hydroformylation catalyst solution was prepared containing Ligand A (2.208 g, 5.866 mmol, initial ligand concentration in the reactor: 0.10M), Rh(CO)2acac (0.0366 g, 0.142 mmol), and 1-methyl-2-pyrrolidone (NMP, 16.05 g). Ligand A, the mono-sulfonated sodium salt of bis(dicyclohexyl)phenylphosphine, has the following structure.
Also prepared under nitrogen was a neat solution of soybean oil-derived methyl esters (33.95 g, 115.08 mmol), prepared by the transesterification of soybean oil with methanol using standard methods known in the art. Soybean oil contains polyunsaturated esters. Under nitrogen, the catalyst solution was added into a 100 mL stainless steel reactor, and the soy methyl esters were added into a substrate delivery cylinder attached to the reactor. […] The average rate of phosphonium ligand degradation product formation was determined using the NMR data.
The hydroformylation of soy oil methyl esters was conducted at 85° C. as an example of the invention to illustrate the effect of temperature on the formation of ligand degradation products. […] The average rate of phosphonium ligand degradation product formation was determined using the NMR data.

[2] = Continuous hydroformylation mini-plant with soy methyl esters; formation rate of phosphonium degradation products (Examples 6-8, Comparative Experiment 6); format: physicochemical
Method: The formation rate of phosphonium degradation products was measured in a continuous hydroformylation mini-plant, which consisted of a reaction system comprised of three reactors in series and a product/catalyst separation system with catalyst recycle. The reactors were charged with a catalyst solution containing Ligand A (2.5 wt %) shown in Example 5 hereinabove, Rh(CO)2acac (500 ppm Rh), and 20 wt % 1-methyl-2-pyrrolidone (NMP). A mixture of soy methyl esters was fed continuously to the first reactor. The reactors were operated at 600 psig (4,137 kPa) pressure by continuously feeding a gaseous mixture of carbon monoxide and hydrogen (CO:H2=1:1 vol/vol). The reaction was conducted for 153 hours continuously at 85° C. The formation rate of phosphonium degradation products was measured to be 0.02 g/liter/day during this period. The pressure of carbon monoxide and hydrogen (CO:H2=1:1 vol/vol) was then reduced to 400 psig (2,758 kPa) while keeping the temperature and other conditions unchanged. The reaction was conducted for 59 hours, and the formation rate of phosphonium degradation products was measured to be 0.03 g/liter/day during this period. The results illustrate a low rate of phosphonium formation at a pressure greater than 300 psig, and further that phosphonium formation decreases with increasing pressure.
The formation rate of phosphonium degradation products was measured in a continuous hydroformylation mini-plant similar to the system described in Example 6. The reaction system was charged with a catalyst solution containing Ligand A (2.5 wt %) as shown in Example 5 hereinabove, Rh(CO)2acac (500 ppm Rh), and 20 wt % 1-methyl-2-pyrrolidone (NMP). Soy methyl esters were fed continuously to the reaction system. The reactors were operated at 400 psig (2,758 kPa) pressure by continuously feeding a gaseous mixture of carbon monoxide and hydrogen (CO:H2=1:1 vol/vol). The reaction was conducted continuously for 59 hours with all reactors at 85° C. The formation rate of phosphonium degradation products was measured to be 0.03 g/liter/day during this period.
For comparative purposes, Example 7 was repeated with the exception that the temperature of the last reactor was increased to 100° C. while keeping the temperature of all other reactors at 85° C. All other conditions remained unchanged. The reaction was conducted for 140 hours and the formation rate of phosphonium degradation products was measured to be 0.07 g/liter/day during this period.
The formation rate of phosphonium degradation products was measured in a continuous hydroformylation mini-plant similar to the one described in Example 6. The reaction system was charged with a catalyst solution containing Ligand A (2 wt %), Rh(CO)2acac (300 ppm Rh), and 30 wt % 1-methyl-2-pyrrolidone (NMP). Soy methyl esters, were fed continuously to the reaction system. The reactors were operated at 300 psig (2,068 kPa) pressure by continuously feeding a gaseous mixture of carbon monoxide and hydrogen (CO:H2=1:1 vol/vol). The reaction was conducted continuously for 150 hours at 95° C. The formation rate of phosphonium degradation products were measured to be 0.05 g/liter/day during this period. The pressure of the reaction system was increased to 600 psig (4136 kPa), and the temperature of the reaction system was decreased to 85° C., while keeping all other conditions unchanged. The reaction was conducted for 350 hours and the formation rate of phosphonium degradation products was measured to be 0.02 g/liter/day during this period.

## O=S(=O)([O-])c1cccc(P(C2CCCCC2)C2CCCCC2)c1.[Na+] [Ligand A, mono-sulfonated sodium salt of bis(dicyclohexyl)phenylphosphine]
[1]; 85° C., initial ligand concentration 0.14 M
  Phosphonium formation rate Average: 0.04 g/L/day
[1]; 100° C., initial ligand concentration 0.10M
  Phosphonium formation rate (Average g/L/day): 0.1 g/L/day
[2]; Comparative Experiment 6, 400 psig, last reactor 100° C., other reactors 85° C., 140 hours
  formation rate of phosphonium degradation products: 0.07 g/L/day
[2]; Example 6, 400 psig, 85° C., 59 hours, Ligand A 2.5 wt %
  formation rate of phosphonium degradation products: 0.03 g/L/day
[2]; Example 6, 600 psig, 85° C., 153 hours, Ligand A 2.5 wt %
  formation rate of phosphonium degradation products: 0.02 g/L/day
[2]; Example 7, 400 psig, all reactors at 85° C., 59 hours, Ligand A 2.5 wt %
  formation rate of phosphonium degradation products: 0.03 g/L/day
[2]; Example 8, 300 psig, 95° C., 150 hours, Ligand A 2 wt %
  formation rate of phosphonium degradation products: 0.05 g/L/day
[2]; Example 8, 600 psig, 85° C., 350 hours, Ligand A 2 wt %
  formation rate of phosphonium degradation products: 0.02 g/L/day
